This note sets out measurements from patent US11214803B2, “Modulators of YAP1 expression” (Ionis Pharmaceuticals, Inc., priority 2019, dated 2022).

Strand notation (5' to 3'): a small letter for the sugar, then the base; units joined by * are phosphorothioate-linked, units joined directly phosphodiester-linked; [ ] holds rarer units or linkages, { } end groups; capitals alone tell only the bases. k = constrained ethyl (cEt); [5mC] = 5-methylcytosine; d = 2'-deoxy (DNA)

Data set [1] relates to Yap1 mRNA. As to the kind of experiment: Dose-dependent inhibition of human Yap1 in A-431 cells (Example 7, 10,000 cells per well, RTS36584). The data set is classed as cell-based. The following applies: free uptake. An outline of the steps:
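A-431 cells at 10,000 per well received modified oligonucleotides by free uptake at several doses. After about 48 hours, Yap1 mRNA was quantified with primer-probe set RTS36584, normalized to RIBOGREEN total RNA and expressed as % untreated control. IC50 came from linear regression on a log/linear plot.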

Data set [2] has as its system Yap1 mRNA. In words: Yap1 mRNA in SNU449 cells in combination with sorafenib (Example 48). The following applies: free uptake, approximately 48 hours. Format: cell-based, human. As for the experimental part: Modified oligonucleotides described in the studies above were tested at various doses in hepatocellular carcinoma cell line SNU449. ION No. 792169, described herein above, was used as a control modified oligonucleotide. ION No. 715487 was used to target Yap1 RNA. […] After approximately 48 hours, Yap1 mRNA levels were measured.
Yap1 mRNA knockdown in tumors was measured by RT-qPCR as previously described using the Human Yap1 primer-probe set RTS4814. Yap1 mRNA levels were normalized to actin-beta content, as measured by primer probe set RTS5002. Results are presented in the tables below as percent control of the amount of Yap1 mRNA relative to PBS treated cells (% control).

Data set [3] is described as follows: Tolerability in Balb/c mice, plasma chemistry markers (Example 12). Format: in vivo. The following applies: 50 mg/kg subcutaneously twice a week for four weeks.
Data set [4] in a line: Tolerability in CD-1 mice, body and organ weights (Example 18). The data set is classed as in vivo. The following applies: male CD-1 mice, 50 mg/kg s.c. twice a week (total of 9 treatments), end of study (day 34). The protocol:
Groups of four male CD-1 mice at 5-6 weeks of age (obtained from Charles River) were injected subcutaneously twice a week for four weeks (for a total of 9 treatments) with 50 mg/kg of modified oligonucleotides. One group of male CD-1 mice was injected with PBS. Mice were euthanized on day 34 post start of treatment (24 hours following the final administration).
Body weights of CD-1 mice were measured at the end of the study, and the average body weight for each group is presented in the table below. Modified oligonucleotides that caused any changes in organ weights outside the expected range for modified oligonucleotides were excluded from further studies.

The subject of data set [5] is subcutaneous DEN carcinomas. In words: Tumor volume in DEN-HCC model, in combination with a-PD1 antibody (Example 49). The data set is classed as in vivo, C57BL/6 mice. The following applies: for Average Tumor Volume: DEN-HCC subcutaneous model, C57BL/6 mice. The protocol: N-nitrosodiethylamine (DEN) is administered at 25 mg/kg into 15 day old C57/BL6 mice. Carcinomas form 6 months post injection. After formation, carcinomas were then dissected from the liver and passaged subcutaneously into C57BL/6 male mice at 4-6 weeks of age to establish a subcutaneous model. For this experiment, mice were passaged with P8 subcutaneously established DEN carcinomas, rendering P9 for the duration of the experiment. Subcutaneous carcinomas are found to form at 4-6 weeks post implantation. Modified oligonucleotides 792169 (control compound) and 715491 (YAP-1 targeting modified oligonucleotide) were treated subcutaneously into groups of 7-8 mice at 10 mg/kg/week 5 times a week for 11 weeks (total of 55 doses). The PBS-only treated group and the control group were treated 5 times a week for 4 weeks (total of 20 doses). α-PD1 antibody (BioXCell) was treated intraperitoneally at 10 mg/kg/week twice a week for 4 weeks (total of 8 doses). F.D. refers to mice that were sacrificed because their tumor volume became too large.

Setting [6] is: oligonucleotide at 0.04 uM, sorafenib 0 uM.
Where [7] appears, read: oligonucleotide at 0.04 uM, sorafenib 0.37 uM.
Setting [8] is: oligonucleotide at 0.04 uM, sorafenib 3.33 uM.
Setting [9] is: oligonucleotide at 0.04 uM, sorafenib 10 uM.
Where [10] appears, read: oligonucleotide at 0.04 uM, sorafenib […].
Where [11] appears, read: oligonucleotide at 0.2 uM, sorafenib 0 uM.
[12] abbreviates: oligonucleotide at 0.2 uM, sorafenib 0.37 uM.
The mark [13] stands for this setting: oligonucleotide at 0.2 uM, sorafenib 3.33 uM.
[14] abbreviates: oligonucleotide at 0.2 uM, sorafenib 10 uM.
Setting [15] is: oligonucleotide at 0.2 uM, sorafenib […].
[16] abbreviates: oligonucleotide at 1 uM, sorafenib 0 uM.
Where [17] appears, read: oligonucleotide at 1 uM, sorafenib 0.37 uM.
Setting [18] is: oligonucleotide at 1 uM, sorafenib 3.33 uM.
Setting [19] is: oligonucleotide at 1 uM, sorafenib 10 uM.
[20] abbreviates: oligonucleotide at 1 uM, sorafenib […].
Setting [21] is: oligonucleotide at 5 uM, sorafenib 0 uM.
Where [22] appears, read: oligonucleotide at 5 uM, sorafenib 0.37 uM.
The mark [23] stands for this setting: oligonucleotide at 5 uM, sorafenib 3.33 uM.
Where [24] appears, read: oligonucleotide at 5 uM, sorafenib 10 uM.
The mark [25] stands for this setting: oligonucleotide at 5 uM, sorafenib […].

As for “715487 (kA*kT*kT*dA*d[5mC]*dT*dT*d[5mC]*dA*dT*dA*dG*d[5mC]*kT*kT*kA) [compound 715487]”, the “Yap1 mRNA, % UTC” value in data set [1] (15.6 nM, A-431 cells, 10,000 cells per well, approximately 48 hours) is given as 77 % UTC; in data set [1] (62.5 nM, A-431 cells, 10,000 cells per well, approximately 48 hours), 44 % UTC; in data set [1] (4000.00 nM, A-431 cells, 10,000 cells per well, approximately 48 hours), 4 % UTC. In data set [1] (A-431 cells, approximately 48 hours, linear regression on log/linear plot), this substance displayed an IC50 of 100 nM. Besides, the “YAP1 mRNA” value worked out at 98 % control in data set [2] (setting [6]); 97 % control in data set [2] (setting [7]); 83 % control in data set [2] (setting [8]); 78 % control in data set [2] (setting [9]); 77 % control in data set [2] (setting [10]); 54 % control in data set [2] (setting [11]). Also, the “YAP1 mRNA” value in data set [2] (setting [12]) came out at 51 % control; in data set [2] (setting [13]), 45 % control; in data set [2] (setting [14]) it was 46 % control; in data set [2] (setting [15]) it was 44 % control; in data set [2] (setting [16]), 30 % control; in data set [2] (setting [17]), 23 % control. Also, the “YAP1 mRNA” value is 21 % control in data set [2] (setting [18]); 20 % control in data set [2] (setting [19]); 22 % control in data set [2] (setting [20]); 9 % control in data set [2] (setting [21]); 8 % control in data set [2] (setting [22]); 7 % control in data set [2] (setting [23]). Also, the “YAP1 mRNA” value in data set [2] (setting [24]) turned out to be 8 % control; in data set [2] (setting [25]), 7 % control.

Turning to “958499 (ATTAGAGTATGTGGCA; 3-10-3 cEt gapmer, further chemistry not given here) [compound 958499]”, in data set [3], the ALT stood at 142 U/L, the AST was determined as 146 U/L, the BUN is reported as 26 mg/dL and the TBIL is 0.17 mg/dL. Also, in data set [1] (Table 61, 15.6 nM, A-431 cells 10,000 cells per well, 48 hours), the “Yap1 mRNA, % UTC” value is 54 % UTC. The “Yap1 mRNA, % UTC” value in data set [1] (Table 61, 62.5 nM, A-431 cells 10,000 cells per well, 48 hours) amounted to 12 % UTC. Also, the “Yap1 mRNA, % UTC” value in data set [1] (Table 61, 4000.00 nM, A-431 cells 10,000 cells per well, 48 hours) is 1 % UTC. This substance also displayed an IC50 in data set [1] (Table 61, A-431 cells 10,000 cells per well) of under 10 nM. Also, in data set [4], the Kidney weight is on record as 0.57 g, the Liver weight turned out to be 2.20 g, the Spleen weight amounted to 0.22 g and the body weight amounted to 39 g.

Regarding “1076453 (GTAATATTGCAATCTG; 3-10-3 cEt gapmer, further chemistry not given here) [compound 1076453]”, in data set [4], the Kidney weight is 0.56 g, the Liver weight stood at 1.91 g, the Spleen weight is reported as 0.20 g and the body weight is listed as 38 g.

Take “CGCCGATAAGGTACAC (cEt gapmer, phosphorothioate backbone, further chemistry not given here) [ION 792169, reference compound]”: the “YAP1 mRNA” value in data set [2] (setting [6]) was 115 % control; in data set [2] (setting [7]), 97 % control; in data set [2] (setting [8]), 99 % control; in data set [2] (setting [9]), 102 % control; in data set [2] (setting [10]) it was 100 % control; in data set [2] (setting [11]) it was 113 % control. Further, the “YAP1 mRNA” value came to 96 % control in data set [2] (setting [12]); 91 % control in data set [2] (setting [13]); 94 % control in data set [2] (setting [14]); 97 % control in data set [2] (setting [15]); 103 % control in data set [2] (setting [16]); 99 % control in data set [2] (setting [17]). Also, the “YAP1 mRNA” value in data set [2] (setting [18]) turned out to be 92 % control; in data set [2] (setting [19]), 93 % control; in data set [2] (setting [20]), 93 % control; in data set [2] (setting [21]), 103 % control; in data set [2] (setting [22]), 104 % control; in data set [2] (setting [23]) it was 97 % control. Besides, the “YAP1 mRNA” value turned out to be 97 % control in data set [2] (setting [24]) and 95 % control in data set [2] (setting [25]). Also, the “Average Tumor Volume” value in data set [5] (day 1 on treatment) is recorded as 354 mm3; in data set [5] (day 5 on treatment), 376 mm3; in data set [5] (day 8 on treatment) it was 414 mm3; in data set [5] (day 11 on treatment) it was 523 mm3; in data set [5] (day 15 on treatment), 604 mm3; in data set [5] (day 18 on treatment), 633 mm3. The “Average Tumor Volume” value in data set [5] (day 23 on treatment) is 773 mm3; in data set [5] (day 25 on treatment), 864 mm3; in data set [5] (day 28 on treatment) it was 802 mm3; in data set [5] (day 31 on treatment), “F.D”; in data set [5] (day 35 on treatment) it was “F.D”; in data set [5] (day 38 on treatment) it was “F.D”. The “Average Tumor Volume” value in data set [5] (day 43 on treatment), in data set [5] (day 45 on treatment), in data set [5] (day 49 on treatment), in data set [5] (day 54 on treatment), in data set [5] (day 58 on treatment) and in data set [5] (day 61 on treatment) was “F.D” throughout. Also, the “Average Tumor Volume” value in data set [5] (day 65 on treatment), in data set [5] (day 68 on treatment), in data set [5] (day 72 on treatment), in data set [5] (day 75 on treatment) and in data set [5] (day 79 on treatment) was “F.D” each time. For the same substance, the “tumor volume (outcome in words)” value in data set [5] (subcutaneous DEN carcinomas in C57BL/6 male mice, 10 mg/kg/week, oligonucleotide subcutaneously, antibody intraperitoneally) is on record as “sacrificed before the end of the experiment because their tumor volume became too large”.

Usually IC50 stands for the concentration that inhibits the measured activity by half. Low values mean inhibition by little substance, high ones a need for much substance.
